In article PMC9774939, “Optimization of Pyrazole Compounds as Antibiotic Adjuvants Active against Colistin- and Carbapenem-Resistant Acinetobacter baumannii” (Antibiotics, 2022):
Read-outs that look alike come from different tables or passages of the source.

How the values were obtained:
[1] = system: Escherichia coli CCUG^T; experiment: MAC determination in the presence of subinhibitory colistin; assay type: cell-based; conditions: for MAC Eco: in the presence of 0.5 × MIC colistin; for MIC/MAC Ratio Eco: minimal ratio of MIC of compound alone to MAC with 0.5 × MIC colistin
Protocol: (§1) The minimum inhibitory concentration (MIC) and minimum bactericidal concentration (MBC) of the compounds were determined in triplicate using Mueller–Hinton broth and a bacterial inoculum of 5 × 10^5 CFU/mL, as recommended by the CLSI [26]. The minimum antibacterial concentration (MAC) of the compounds was determined in the presence of a fixed and subinhibitory concentration of colistin (as mentioned above).

[2] = system: Klebsiella pneumoniae ATCC 13833; experiment: as above; assay type: cell-based; design: key to MAC Kpn: -: No synergistic activity; conditions: for MAC Kpn: in the presence of 0.5 × MIC colistin; for MIC/MAC Ratio Kpn: minimal ratio of MIC of compound alone to MAC with 0.5 × MIC colistin
Protocol: as §1

[3] = system: Acinetobacter baumannii ATCC 17978; experiment: as above; assay type: cell-based; conditions: for MAC Aba: in the presence of 0.5 × MIC colistin; for MIC/MAC Ratio Aba: minimal ratio of MIC of compound alone to MAC with 0.5 × MIC colistin
Protocol: as §1

[4] = system: E. coli CCUG^T; experiment: Chequerboard analysis with colistin; assay type: cell-based, Escherichia coli; conditions: combination with colistin; synergy when ≤0.5
Protocol: (§2) The chequerboard analysis is a two-dimensional array in which individual microplate wells contain a unique combination of the concentrations of the tested compound and colistin. Tested concentrations of the compound ranged from 64 to 0.06 μg/mL along the x-axis, whereas polymyxin E1 concentrations ranged from 2 to 0.03 μg/mL (or 32–0.5 μg/mL when polymyxin E1-resistant clinical isolates were used) and varied along the y-axis. Determining the fractional inhibitory concentration (FIC) of both compounds and computing the average FIC index allowed us to determine whether a synergistic, additive, or antagonistic activity between the tested compounds could be observed. A synergistic activity occurred when the average FIC index was equal to or less than 0.5 [21, 27].

[5] = system: K. pneumoniae ATCC 13833; experiment: Chequerboard analysis with colistin; assay type: cell-based, Klebsiella pneumoniae; conditions: combination with colistin; synergy when ≤0.5
Protocol: as §2

[6] = system: K. pneumoniae SI-004Bo; experiment: Chequerboard analysis with colistin; assay type: cell-based, Klebsiella pneumoniae; conditions: combination with colistin; pandrug-resistant, colistin-resistant isolate
Source text: (§3) Carbapenem-resistant, colistin-resistant, and XDR clinical isolates were kindly provided by Prof. Gian Maria Rossolini (University of Florence, Italy). Klebsiella pneumoniae SI-004Bo is a KPC-producing, pandrug-resistant isolate (KKBO-4 [17]) selected in vivo during colistin therapy (colistin resistance mechanism, IS-mediated insertional inactivation of mgrB). Acinetobacter baumannii N50 is an OXA-24-producing clinical isolate resistant to all β-lactams, aminoglycosides, and fluoroquinolones.
as §2

[7] = system: A. baumannii ATCC 17978; experiment: Chequerboard analysis with colistin; assay type: cell-based, Acinetobacter baumannii; conditions: combination with colistin; synergy when ≤0.5
Protocol: as §2

[8] = system: A. baumannii N50; experiment: Chequerboard analysis with colistin; assay type: cell-based, Acinetobacter baumannii; conditions: combination with colistin; MDR, colistin-resistant isolate
Source text: as §3, §2

[9] = Membrane integrity assay (LDH release); assay type: cell-based; conditions: human, HeLa cells; tested alone, 24 h exposure; read-out: IC50 cytotoxicity (membrane-damaging activity, LDH release)
Protocol: The potential cytotoxic activity of compounds was evaluated using the commercially available integrity assay (CytoTox 96® non-radioactive cytotoxicity assay, Promega). The compounds were tested for their ability to induce the lysis of HeLa cells by measuring the release of lactate dehydrogenase (LDH) after incubating the HeLa cell cultures (20,000 cells/well) for 24 h (37 °C, 5% CO2) in DMEM (Dulbecco’s Modified Eagle Medium) supplemented with 10% fetal bovine serum, 4.5 mg/mL glucose, and 2 mM L-glutamine in the absence and presence of varying concentrations of the compounds (up to 256 µg/mL). Further controls included samples containing the medium only or in which cell lysis was induced by the addition of 9% Triton X-100 (maximum LDH release control). The percentage of cytotoxicity was computed as 100 × (sample LDH release)/(maximum LDH release). The variation of the percentage of cytotoxicity allowed us to compute an IC50 value (compound concentration inducing 50% cytotoxicity).

[10] = Hemolytic activity; assay type: cell-based; conditions: 0.025–10 μg of compound
Protocol: The hemolytic activity of compounds 1, 2, 8, 9, 45, and 49 (0.025–10 μg) was investigated using the method described by Bechlars et al.. Triton X-100 was used as the hemolysis control and DMSO as the negative control.

[11] = system: Acinetobacter baumannii N50; experiment: MBC determination in the presence of colistin; assay type: cell-based; conditions: in the presence of 2 µg/mL of colistin
Protocol: as §1

[12] = system: eight reference strains, Gram-positive and Gram-negative; design: method as in PMID 32435403; conditions: parent compound; cited from earlier work
[13] = system: Escherichia coli CCUG^T; design: method as in PMID 32435403; conditions: parent compounds, cited from earlier work; for MAC Eco: in the presence of 0.5 × MIC colistin; for MIC/MAC Ratio Eco: minimal ratio
[14] = system: Klebsiella pneumoniae ATCC 13833; design: method as in PMID 32435403; conditions: parent compounds, cited from earlier work; for MAC Kpn: in the presence of 0.5 × MIC colistin; for MIC/MAC Ratio Kpn: minimal ratio
[15] = system: Acinetobacter baumannii ATCC 17978; design: method as in PMID 32435403; conditions: parent compounds, cited from earlier work; for MAC Aba: in the presence of 0.5 × MIC colistin; for MIC/MAC Ratio Aba: minimal ratio
[16] = system: Acinetobacter baumannii N50; experiment: Time-kill curve analysis; assay type: cell-based
Protocol: The time-dependent bacterial killing of colistin, compound 9, or a combination thereof was investigated using established methods. Briefly, a culture medium containing a starting inoculum of 5.0 × 10^6 CFU/mL of Acinetobacter baumannii N50 clinical isolate was incubated aerobically at 35 °C under orbital agitation (200 rpm) in Mueller–Hinton broth, in the absence (growth control) or presence of either 2 μg/mL of colistin (a concentration equivalent to the susceptibility breakpoint), 8 µg/mL of compound 9, or both. The bacterial count (expressed in CFU/mL) in the control and antibiotic-containing media was determined every hour for up to 6 h of incubation via serial 10-fold dilution and direct plating of 0.1 mL of the sample on the Mueller–Hinton Agar medium (without antibiotic), which was incubated for 24 h at 35 °C.

[17] = system: HeLa cells; experiment: Cell viability and proliferation assay (RealTime-Glo MT); assay type: cell-based; conditions: 16 µg/mL of compound, up to 72 h
Protocol: The cytotoxicity of the compounds was also evaluated by measuring the number of viable cells in the culture with respect to the control culture (cells treated with DMSO only) using the RealTime-Glo™ MT Cell Viability Assay in the presence of varying concentrations of the compound. The assay is a nonlytic homogeneous, bioluminescent method that can be used to measure cell viability/proliferation in real time using NanoLuc® luciferase and a cell-permeant prosubstrate (MT Cell Viability Substrate). […]

Compound	MAC Eco [1] [µg/mL]	MIC/MAC Ratio Eco [1]	MAC Kpn [2]	MAC Aba [3] [µg/mL]	MIC/MAC Ratio Aba [3]	Average FIC Index [4]	Average FIC Index [5]	Average FIC Index [6]	Average FIC Index [7]	Average FIC Index [8]	hemolytic activity [10]	MBC [11] [µg/mL]	melting point [°C]	MIC/MAC Ratio Kpn [2]	further results
O=C(NC12CC3CC(CC(C3)C1)C2)c1cnn(-c2ccccc2)c1-n1cccc1 [Compound 8, N-(Adamantan-1-yl)-1-phenyl-5-(1H-pyrrol-1-yl)-1H-pyrazole-4-carboxamide]	32	16	- ^a	4	128	0.38	0.5	1	0.31	0.24	no hemolytic activity could be observed	> 64	167 to 169	–	IC50 at 24 h [9]: > 256 µg/mL
O=C(NCc1ccc2c(c1)OCO2)c1cnn(-c2ccccc2)c1-n1cccc1 [Compound 1]	–	–	–	–	–	0.5	0.5	1	0.38	0.5	no hemolytic activity could be observed	–	–	–	direct antibacterial activity [12]: no direct antibacterial activity was observed; MAC Eco [13]: 64 µg/mL; MIC/MAC Ratio Eco [13]: 8; MAC Kpn [14]: 64 µg/mL; MIC/MAC Ratio Kpn [14]: 8; MAC Aba [15]: 32 µg/mL; MIC/MAC Ratio Aba [15]: 16
Cc1c(C(=O)Nc2ccc(O)cc2)nn(-c2ccc(Cl)cc2)c1-n1cccc1 [Compound 45, 1-(4-Chlorophenyl)-N-(4-hydroxyphenyl)-4-methyl-5-(1H-pyrrol-1-yl)-1H-pyrazole-3-carboxamide]	4	128	4 µg/mL	8	64	0.31	0.31	1	0.31	0.26	no hemolytic activity could be observed	> 64	226 to 228	128	–
Colistin [reference compound]	–	–	–	–	–	–	–	–	–	–	–	–	–	–	bactericidal effect (time-kill) ([16]; colistin alone at 2 µg/mL): not expectedly able to show any bactericidal effect
Cc1c(C(=O)N(C)CCN(C)C)nn(-c2ccc(Cl)cc2)c1-n1cccc1 [Compound 2]	–	–	–	–	–	0.31	0.5	1	0.39	0.4	no hemolytic activity could be observed	–	–	–	MAC Eco [13]: 64 µg/mL; MIC/MAC Ratio Eco [13]: 8; MAC Kpn [14]: 32 µg/mL; MIC/MAC Ratio Kpn [14]: 16; MAC Aba [15]: 16 µg/mL; MIC/MAC Ratio Aba [15]: 32
CC(C)(C)OC(=O)[C@H](Cc1ccccc1)NC(=O)c1cnn(-c2ccccc2)c1-n1cccc1 [Compound 9, tert-Butyl (S)-3-Phenyl-2-[[[1-phenyl-5-(1H-pyrrol-1-yl)-1H-pyrazol-4-yl]carbonyl]amino]propanoate]	8	64	8 µg/mL	4	128	0.33	0.32	1	0.34	0.23	no hemolytic activity could be observed	> 64	–	64	proliferation of HeLa cells [17]: not significantly altered; reduction of bacterial population (time-kill) ([16]; 2 µg/mL of colistin and 8 µg/mL of 9, within 5 h): 4 log10; antibacterial activity alone (time-kill) ([16]; 8 µg/mL of 9 alone): does not exhibit antibacterial activity
Cc1c(C(=O)Nc2ccc(S(C)(=N)=O)cc2)nn(-c2ccc(Cl)cc2)c1-n1cccc1 (stereo not drawn) [Compound 49, 1-(4-Chlorophenyl)-4-methyl-N-[4-(S-methylsulfonimidoyl)phenyl]-5-(1H-pyrrol-1-yl)-1H-pyrazole-3-carboxamide]	8	64	4 µg/mL	8	64	0.32	0.39	1	0.38	0.31	no hemolytic activity could be observed	> 64	207 to 210	128	–
